The numbers were not newly measured in patent US20230106284A1, “SYSTEM AND METHOD FOR GENERATING POTENTIAL DRUG COMPOSITIONS FOR DISEASE TARGET” (Innoplexus AG, priority 2020, published 2023), which cites them from elsewhere.

SMILES strings stand for the structures.

For the data set the following is noted: oral delivery.

As to `O=C(O)c1ccc(-n2nc(-c3ccccc3O)nc2-c2ccccc2O)cc1` [DFX, deferasirox], the bioavailability entry is reported as “about 70%” and the volume of distribution is recorded as 14.37±2.69 litter.
